Legend:
[1] = Distribution in lung expressed as [18F]- organ uptake in % of injected activity/gram; type: ADME, tissue-based, Cavia porcellus; settings: guinea pig
[2] = Distribution in kidney expressed as [18F]- organ uptake in % of injected activity/gram; type: ADME, tissue-based, Cavia porcellus; settings: guinea pig
[3] = Distribution in intestine expressed as [18F]- organ uptake in % of injected activity/gram; type: ADME, tissue-based, Cavia porcellus; settings: guinea pig
[4] = Distribution in brain expressed as [18F]- organ uptake in % of injected activity/gram; type: ADME, tissue-based, Cavia porcellus; settings: guinea pig
[5] = Distribution in heart expressed as [18F]- organ uptake in % of injected activity/gram; type: ADME, tissue-based, Cavia porcellus; settings: guinea pig
[6] = Distribution in blood expressed as [18F]- organ uptake in % of injected activity/gram; type: ADME, tissue-based, Cavia porcellus; settings: guinea pig
[7] = target: Beta-2 adrenergic receptor (Cavia porcellus, UniProt Q8K4Z4); experiment: In vitro inhibitory concentration Beta-2 adrenergic receptor in Guinea pig trachea
Beta-2 adrenergic receptor, sequence (Q8K4Z4 whole entry): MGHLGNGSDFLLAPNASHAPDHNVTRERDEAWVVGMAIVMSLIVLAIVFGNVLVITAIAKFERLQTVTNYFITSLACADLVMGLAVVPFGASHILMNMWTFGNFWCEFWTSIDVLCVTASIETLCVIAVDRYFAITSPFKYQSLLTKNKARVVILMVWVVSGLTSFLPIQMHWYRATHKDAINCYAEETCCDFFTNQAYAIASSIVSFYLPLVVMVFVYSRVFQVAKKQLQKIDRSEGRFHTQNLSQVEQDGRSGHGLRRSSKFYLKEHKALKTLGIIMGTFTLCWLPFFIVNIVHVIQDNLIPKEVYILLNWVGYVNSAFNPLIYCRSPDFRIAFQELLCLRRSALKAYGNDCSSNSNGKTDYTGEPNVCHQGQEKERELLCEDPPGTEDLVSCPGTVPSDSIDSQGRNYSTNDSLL

[8] = Distribution in liver expressed as [18F]- organ uptake in % of injected activity/gram; type: ADME, tissue-based, Cavia porcellus; settings: guinea pig
[9] = Distribution in spleen expressed as [18F]- organ uptake in % of injected activity/gram; type: ADME, tissue-based, Cavia porcellus; settings: guinea pig
[10] = Half-life was measured; type: ADME, Cavia porcellus; settings: guinea pig

CC(Cc1ccc(OCCF)cc1)NCC(O)c1cc(O)cc(O)c1 (stereo not given)
ID/g [1]: 1.16%
ID/g [2]: 0.7%
ID/g [3]: 0.77%
ID/g [4]: 0.02%
ID/g [5]: 0.49%
ID/g [6]: 0.22%
IC50 [7]: 0.06 µM
ID/g [8]: 0.95%
ID/g [9]: 0.84%
half-life [10]: 1.83 h
